Here are results for 65 compounds from patent US20230152304A1 (SHENZHEN MINDRAY BIO-MEDICAL ELECTRONICS CO., LTD., priority 2020, published 2023).

Residues, ends and D or L forms follow the SMILES beside them.

The nature of series [1]: pKa of the amino group of the compound. An excerpt: For the compound having a plurality of amino groups/imino groups, the pKa of amino group described herein refers to the first dissociation constant, that is, pKa of amino group or imino group which firstly dissociates hydrogen ion.
In series [2] the test system is aggregated platelets induced by ADP. Kind of series: Platelet disaggregation rate of blood samples with ADP-induced platelet aggregation (hematology analyzer, PLT_O).
Description: The compounds in Table 1 above were respectively added to a diluent used for a hematology analyzer to prepare blood sample diluents. […] Each of the compounds in Table 1 (at a final concentration 0.01 mol/L) was added to the diluent separately, pH was adjusted to 14, and the osmotic pressure was adjusted to 200 mOsm/L to obtain the treatment solution.
The venous blood of a healthy subject was collected into blood anticoagulant tubes for later use. Two aliquot blood samples (1 ml/sample) were taken. The above-mentioned diluent was added to one of the samples, the resulting solution was mixed evenly, and then the platelet count was detected in a hematology analyzer (Mindray BC-6000Plus) and recorded as: PLT_O (unaggregated). The platelet aggregation inducer ADP (at a final concentration of 0.01 mmol/L) was added to the other sample, and the resulting solution was mixed evenly. Platelets were aggregated 5 min later, at this time the above-mentioned diluent was added, and then the blood containing the aggregated platelets was detected by the hematology analyzer to obtain the platelet count, which was recorded as: PLT_O (aggregated). Another 1 ml of blood sample was taken, the platelet aggregation inducer ADP (at a final concentration of 0.01 mmol/L) was added, and the resulting solution was mixed evenly. The above-mentioned treatment solution was added 5 min later, the resulting solution was mixed evenly, and then the platelet count of the treated blood was detected by the hematology analyzer and was recorded as: PLT_O (disaggregated).
Where [3] appears, read: Table 3, method of Example 1 (0.01 mol/L, pH 14, ADP 0.01 mmol/L).
Where [4] appears, read: Table 4, pH 8.18, method of Example 1.
Where [5] appears, read: Table 4, pH 9.96, method of Example 1.
Where [6] appears, read: Table 5, pH 9.5, method of Example 1.
Setting [7] is: Table 2, compound 0.01 mol/L, pH 14, ADP 0.01 mmol/L.
Setting [8] is: Table 4, pH 9.14, method of Example 1.
Setting [9] is: FIG. 13, 10 mmol/L, pH 9.5, ADP 0.01 mmol/L.
Where [10] appears, read: Table 4, pH 5.75, method of Example 1.
[11] abbreviates: Table 4, pH 10.64, method of Example 1.
Setting [12] is: Table 4, pH 10.8, method of Example 1.

A word on the pKa: it is the negative logarithm of the acid dissociation constant. High values mean a weaker acid or stronger base, low ones a stronger acid or weaker base. Take 1,3-diaminopropane: the pKa in series [1] (Table 3) was 10.4. This compound registered a Platelet disaggregation rate in series [2] (setting [3]) of 91.14%.

2-aminoacetamide gave a pKa in series [1] (Table 4) of 7.93. In series [2] (setting [4]), this compound gave a Platelet disaggregation rate of 64.57%.

On to 3-amino-1-propanol, for which the Platelet disaggregation rate in series [2] (setting [5]) is 81.43%.

Consider `Nc1cc(N)cc(N)c1` [1,3,5-triaminobenzene], for which, in series [1] (pKa, Table 3), the pKa is 5.5. This compound also yielded a Platelet disaggregation rate in series [2] (setting [3]) of 72.44%.

On to `NCC(O)CN` [1,3-diamino-2-propanol], for which the pKa in series [1] (Table 3) came out at 9.68. In addition, the Platelet disaggregation rate in series [2] (setting [3]) amounted to 93.78%.

Consider `Nc1ccc(N)c(S(=O)(=O)O)c1` [2,5-diaminobenzene-sulfonic acid], for which the pKa in series [1] (pKa, Table 3) turned out to be 5.17. This compound also showed a Platelet disaggregation rate in series [2] (setting [3]) of 62.44%.

As for `NCC(CN)CN` [2-(aminomethyl)-propane-1,3-diamine], the pKa in series [1] (pKa, Table 3) stood at 9.59; in series [1] (pKa, Table 5), 9.6. The compound further showed a Platelet disaggregation rate in series [2] (setting [3]) of 96.43%. Moreover, in series [2] (setting [6]), the disaggregation rate turned out to be 97.46%.

For `CNC(CC(N)=O)C(N)=O` (stereo not drawn) [2-(methylamino) succinamide], the pKa in series [1] (pKa, Table 3) amounted to 7.02. Moreover, in series [2] (setting [3]), the Platelet disaggregation rate amounted to 74.43%.

`CNCCO` [2-(methylamino)ethanol] returned a Platelet disaggregation rate in series [2] (setting [7]) of 82.49%%.

The compound `CC(N)C(N)=O` (stereo not drawn) [2-aminopropanamide] yielded a pKa in series [1] (pKa, Table 4) of 8.18. Also, the Platelet disaggregation rate in series [2] (setting [4]) came to 62.65%.

In the case of `CNCc1ccc(O)cc1` [4-[(methylamino)methyl]phenol], the Platelet disaggregation rate in series [2] (setting [7]) is reported as 59.43%.

Regarding `NCCCCO` [4-amino-1-butanol], the pKa in series [1] (pKa, Table 4) came to 10.3. Besides, the Platelet disaggregation rate in series [2] (setting [5]) is 74.45%.

Compound `NCCCC(=O)O` [4-aminobutyric acid] registered a pKa in series [1] (pKa, Table 4) of 10.4.

Regarding `Nc1ccc(O)cc1` [4-aminophenol], the pKa in series [1] worked out at 5.5. Besides, the Platelet disaggregation rate in series [2] (setting [7]) was 67.73%; in series [2] (setting [8]) it was 67.37%.

Regarding `CCCCc1ccc(O)cc1` [4-butylphenol, reference compound], in series [2] (setting [7]), the Platelet disaggregation rate worked out at 9.43%.

As for `NCc1ccc(O)cc1` [4-hydroxybenzylamine], the pKa in series [1] (pKa, Table 4) turned out to be 9.14. For the same compound, in series [2] (setting [8]), the Platelet disaggregation rate was 51.43%.

`N.N.O=P(O)(O)O` [(NH4)2HPO4, ammonium hydrogen phosphate]: the disaggregation effect in series [2] (setting [9]) is listed as 99.25%.

`N.N.N.O=P(O)(O)O` [(NH4)3PO4, ammonium phosphate] displayed a disaggregation effect in series [2] (setting [9]) of 94.87%.

`Br.N` [NH4Br, ammonium bromide]: the disaggregation effect in series [2] (setting [9]) is listed as 93.48%.

`N.N.O=C(O)C(=O)O` [NH4C2O4, ammonium oxalate] returned a disaggregation effect in series [2] (setting [9]) of 87.67%.

For `N.O=P(O)(O)O` [NH4H2PO4, ammonium dihydrogen phosphate], in series [2] (setting [9]), the disaggregation effect is 86.24%.

Compound `I.N` [NH4I, ammonium iodide] had a disaggregation effect in series [2] (setting [9]) of 92.75%.

For `N.O` [NH4OH, ammonia water], the disaggregation effect in series [2] (setting [9]) was 83.05%.

Compound `N.N#CS` [NH4SCN, ammonium thiocyanate] came in with a disaggregation effect in series [2] (setting [9]) of 85.78%.

Compound `[Cl-].[Na+]` [NaCl, reference compound] gave a disaggregation effect in series [2] (setting [9]) of 18.90%.

In series [2] (setting [7]), `CC=O` [acetaldehyde, reference compound] had a Platelet disaggregation rate of 16.54%.

For the compound `CC(N)=O` [acetamide], the Platelet disaggregation rate is 64.57% in series [2] (setting [7]) and 44.44% in series [2] (setting [3]).

As for `CC(=O)O` [acetate, reference compound], the Platelet disaggregation rate in series [2] (setting [7]) was 11.75%.

`CC(=O)CC(C)=O` [acetylacetone, reference compound] had a Platelet disaggregation rate in series [2] (setting [7]) of 8.45%.

On to `NCS(=O)(=O)O` [aminomethanesulfonic acid], for which the pKa in series [1] (pKa, Table 4) is 5.75. The compound also had a Platelet disaggregation rate in series [2] (setting [10]) of 52.44%.

Turning to `Cl.N` [ammonium chloride], the disaggregation effect stood at 95.70% in series [2] (setting [9]) and 66.27% in series [2] (FIG. 14, 50 mmol/L (total for combination, equal parts), ADP 0.1 mmol/L). Besides, the disaggregation rate is on record as 18.62% in series [2] (Table 6, 0.01 mol/L, pH 4.0); 31.70% in series [2] (Table 6, 0.01 mol/L, pH 5.5); 59.61% in series [2] (Table 6, 0.01 mol/L, pH 6.5); 94.05% in series [2] (Table 6, 0.01 mol/L, pH 7.5); 94.62% in series [2] (Table 6, 0.01 mol/L, pH 8.5); 95.70% in series [2] (Table 6, 0.01 mol/L, pH 9.5). In series [2] (Table 6, 0.01 mol/L, pH 11.0), this compound yielded a disaggregation rate of 97.72%.

In series [2] (setting [3]), `Nc1ccccc1` [aniline] gave a Platelet disaggregation rate of 56.26%.

In turn, `N=C(N)NCCC[C@H](N)C(=O)O` [arginine] displayed a pKa in series [1] (pKa, Table 5) of 9. In addition, the disaggregation rate in series [2] (setting [6]) was 62.64%.

`O=S(=O)(O)c1ccccc1` [benzenesulfonic acid, reference compound] returned a Platelet disaggregation rate in series [2] (setting [7]) of 13.77%.

Take `N=C(N)NC(=N)N` [biguanide]: in series [1] (pKa, Table 3), the pKa was found to be 13.2. Further, in series [2] (setting [3]), the Platelet disaggregation rate was 97.54%.

As for `CCCCN` [butylamine], the Platelet disaggregation rate in series [2] (setting [3]) stood at 87.53%; in series [2] (setting [11]), 84.34%.

`CCCC(=O)O` [butyric acid, reference compound] yielded a Platelet disaggregation rate in series [2] (setting [7]) of 11.45%.

`CC(=O)NC(C)=O` [diacetamide] had a Platelet disaggregation rate in series [2] (setting [7]) of 75.43%.

The compound `CCS(=O)(=O)O` [ethanesulfonic acid, reference compound] yielded a Platelet disaggregation rate in series [2] (setting [7]) of 16.54%.

In series [2] (setting [7]), `CCO` [ethanol, reference compound] returned a Platelet disaggregation rate of 14.46%.

For the compound `NCCO` [ethanolamine], the Platelet disaggregation rate came out at 91.45% in series [2] (setting [7]), 86.45% in series [2] (setting [3]) and 88.45% in series [2] (setting [5]).

As to `C=O` [formaldehyde, reference compound], the Platelet disaggregation rate in series [2] (setting [7]) amounted to 13.85%.

For the compound `N[C@@H](CCC(=O)O)C(=O)O` [glutamic acid], the pKa in series [1] and in series [1] (Table 5) was 9.6 each time. The compound further yielded a disaggregation rate in series [2] (setting [6]) of 63.24%.

Regarding `NC(=O)CCC(N)C(=O)O` (stereo not drawn) [glutamine], in series [2] (setting [4]), the Platelet disaggregation rate is 59.25%.

Regarding `NCC(=O)NCC(=O)O` [gly-gly] (H-Gly-Gly-OH), the pKa in series [1] stood at 9.6. In series [2] (setting [6]), this compound displayed a disaggregation rate of 57.29%.

On to `NCC(=O)O` [glycine], for which the Platelet disaggregation rate in series [2] (setting [7]) and in series [2] (setting [3]) was 65.47% throughout. Besides, the disaggregation rate in series [2] (setting [6]) was 70.47%.

On to `N=C(N)N` [guanidine], for which the pKa in series [1] worked out at 13.17. Further, the Platelet disaggregation rate in series [2] (setting [7]) and in series [2] (setting [3]) was 84.35% in each case.

Turning to `NCCCCC(N)C(=O)NC(CCCCN)C(=O)O` (stereo not drawn) [lys-lys], the pKa in series [1] (pKa, Table 3) amounted to 11. In series [2] (setting [3]), this compound returned a Platelet disaggregation rate of 85.75%.

With `NCCCCC(N)C(=O)O` (stereo not drawn) [lysine], the pKa was determined as 10.7 in series [1] (pKa, Example 4) and 10.8 in series [1] (pKa, Table 3). Moreover, the Platelet disaggregation rate in series [2] (setting [3]) worked out at 70.49%.

`Nc1cccc(N)c1` [m-phenylenediamine] returned a pKa in series [1] (pKa) of 4.67. In addition, the Platelet disaggregation rate in series [2] (setting [3]) amounted to 66.83%.

Compound `CCCN` [n-propylamine] showed a Platelet disaggregation rate in series [2] (setting [11]) of 85.53%.

For the compound `Oc1ccccc1` [phenol, reference compound], the Platelet disaggregation rate in series [2] (setting [7]) was 8.44%.

Compound `OCN(CO)C(CO)(CO)CO` [reference compound] had a pKa in series [1] of 6.5. In addition, the disaggregation rate in series [2] (setting [6]) is reported as 24.0%.

As for `CNCC(=O)O` [sarcosine], the Platelet disaggregation rate in series [2] (setting [7]) came to 64.75%.

On to `NS(=O)(=O)O` [sulfamic acid], for which, in series [1], the pKa is reported as 1.19. The Platelet disaggregation rate in series [2] (setting [10]) was 64.54%.

Take `Nc1ccc(S(=O)(=O)O)cc1` [sulfanilic acid]: the pKa in series [1] (pKa, Example 4) came out at 10.1; in series [1] (pKa, Table 3), 3.32. The Platelet disaggregation rate in series [2] (setting [7]) and in series [2] (setting [3]) was 55.15% in each case.

Regarding `NCCS(=O)(=O)O` [taurine], the pKa in series [1] (pKa, Table 4) stood at 9.12. This compound also yielded a Platelet disaggregation rate in series [2] (setting [10]) of 46.25%.

In turn, `CC(=O)O.NC(CO)(CO)CO` [tris(hydroxymethyl)aminomethane acetate] yielded a disaggregation rate in series [2] (setting [6]) of 75.23%.

As to `NCCc1ccc(O)cc1` [tyramine], the pKa in series [1] (pKa, Table 4) was 10.6. For the same compound, the Platelet disaggregation rate in series [2] (setting [8]) amounted to 48.44%.

Consider `N=C(N)NCC(=O)O` [{[amino(imino)methyl]amino}-acetic acid], for which the pKa in series [1] (pKa, Table 4) came out at 10.8. Also, in series [2] (setting [12]), the Platelet disaggregation rate is 94.02%.

aminoguanidine: in series [1] (Table 3), the pKa is 11.04. In series [2] (setting [3]), this compound registered a Platelet disaggregation rate of 92.35%.

In series [2] (setting [7]), butanol [reference compound] returned a Platelet disaggregation rate of 13.14%.

In series [1] (Table 4), ethylamine returned a pKa of 10.67. In series [2] (setting [11]), the Platelet disaggregation rate is on record as 83.32%.

As to methyl guanidine, the pKa in series [1] is 13.2. Further, in series [2] (setting [12]), the Platelet disaggregation rate was 86.36%.

Regarding tris(hydroxymethyl)aminomethane, the pKa in series [1] (Table 5) was 8.1. The same compound returned a disaggregation rate in series [2] (setting [6]) of 97.32%.
